Reference: patent US4751227A, “3-cyano-5-(6-imidazo[1,2-a]pyridyl)pyridin-2-ols useful as cardiotonics” (Eisai Co., Ltd., priority 1985, dated 1988)

Assays:
[1] = test system: isolated Guinea Pig heart muscles; experiment: Effects of compounds on contractile response of isolated Guinea Pig heart muscles (right ventricular papillary muscles); conditions: Cavia porcellus, read-out: Contractilities; for activation at 100 µM: Concentration 10^-4 M; for activation at 10 µM: Concentration 10^-5 M; for activation at 1 µM: Concentration 10^-6 M
Protocol: Effects of compounds on contractile response of isolated Guinea Pig heart muscles
Male guinea pigs weighing 300 to 500 g were stunned with a blow on the head and exsanguinated. The chest was opened rapidly, the heart was excised and papillary muscles from the right ventricle were excised.
The preparations were mounted in 10 ml organ bath which were filled with Krebs-Henseleit solution maintained at 36° C. and oxygenated with 95% O2 -5% CO2.
Right ventricular papillary muscles were stimulated electrically at a rate of 1 Hz by a suprathreshold (1.2×threshold) rectangular pulse 3 ms in duration. The resting tension applied to the papillary muscles was adjusted to produce maximum developed tension. The developed tension was recorded isometrically by means of force-displacement transducer. The text compounds were dissolved in diluted hydrochloric acid and were added to the bath. Contractility after administration was compared to that prior to administration.
The test compounds are those prepared in the examples later described.

Anesthetized Dog = experiment: Effect of compounds on cardiac contractility, heart rate and blood pressure in Anesthetized Dog; type: in vivo, mongrel dogs; conditions: intravenous
Protocol: Effect of compounds on cardiac contractility in Anesthetized Dog
Using male and female mongrel dogs subjected to artificial respiration and anesthetized by inhalation of Halothane cardiotonic effect of compounds was examined. The aortic pressure and the left ventricular pressure were recorded with a catheter inserted from the femoral artery into the aorta of the chest and with a micro tip pressure transducer (Millar) inserted from the carotid into the left ventricle, respectively. The heart rate was monitored by means of a tachograph triggered by the left ventricular pressure pulse. As an index of cardiac contractility, a primary differentation (LV dp/dt max) of the left ventricular pressure pulse was recorded. The test compounds were dissolved in physiological saline or diluted hydrochloric acid or polyethylene glycol and the solutions were intravenously given through the catheter inserted into the femoral vein.
Percent changes by the test compounds in cardiac contractility, heart rate and blood pressure obtained by the foregoing method are shown in Table 2, when compared to those prior to administration of the test compounds. In Table 2, the test compounds are those prepared in the examples later described.

[2] = test system: coronary and femoral blood flow; experiment: Effect of compounds on coronary and femoral blood flow in anesthetized dogs; type: in vivo, mongrel dogs; conditions: intraarterial
Protocol: Effect of compounds on coronary and femoral blood flow
Using male and femal mongrel dogs thoracotomized at the left 4th intercostal space under artificial respiration and inhalation anesthesia with Halothane, effect of coronary and femoral blood flow was examined by intrarterial administration. By placing an electromagnetic flowprobe around the left circumflex coronary artery and the femoral artery, the blood flows of both arteries were measured. Shallow catheters were inserted in and fixed to the arterial branch distal to the flowprobe and the test compounds were intrarterially administered through the catheters. In this case, the blood pressure, the heart rate and the cardiac contractility were also recorded simultaneously. Each test compound was used by dissolving it in physiological saline, diluted hydrochloric acid or polyethylene glycol in a dose not accompanied by any change in the blood pressure, the heart rate and the cardiac contractility.

platelets = experiment: Effect of compounds on platelet aggregation caused by collagen; type: cell-based, healthy volunteers; conditions: Homo sapiens, collagen 1 μg/ml, read-out: inhibition rate of platelet aggregation
Protocol: Effect of compounds on platelet aggregation
Using platelets obtained from healthy volunteers, effect of compounds on platelet aggregation caused by collagen (1 μg/ml) was examined.

rats = experiment: Acute toxicity test by oral administration in rats; type: in vivo; conditions: 3 g/kg, 4 in each group
Protocol: (§1) Acute toxicity was tested by oral administration in rats and mice. The results reveal that the compounds of the present invention have extremely low toxicity.

mice = experiment: Acute toxicity test by oral administration in mice; type: in vivo; conditions: 3 g/kg, 4 in each group
Protocol: as §1

SMILES | activation at 100 µM [1] [%] | activation at 10 µM [1] [%] | activation at 1 µM [1] [%] | Change in Blood Pressure (Anesthetized Dog; 10 μg/kg) [%] | Change in Cardiac Contractility (LV dp/dt max) (Anesthetized Dog; 10 μg/kg) [%] | Change in Heart Rate (Anesthetized Dog; 10 μg/kg) [%] | Change in Blood Pressure (Anesthetized Dog; 30 μg/kg) [%] | Change in Cardiac Contractility (LV dp/dt max) (Anesthetized Dog; 30 μg/kg) [%] | Change in Heart Rate (Anesthetized Dog; 30 μg/kg) [%] | Change in Blood Pressure (Anesthetized Dog; 100 μg/kg) [%] | Change in Cardiac Contractility (LV dp/dt max) (Anesthetized Dog; 100 μg/kg) [%] | Change in Heart Rate (Anesthetized Dog; 100 μg/kg) [%] | also measured
Cc1[nH]c(=O)c(C#N)cc1-c1ccc2nccn2c1 [Example 1, 1,2-Dihydro-5-(imidazo[1,2-a]pyridin-6-yl)-6-methyl-2-oxo-3-pyridinecarbonitrile] | 129 | 88 | 40.7 | 0 | 16 | 6 | -5 | 68 | 15 | -17 | 97 | 22 | Coronary Blood Flow ([2]; dose 3 ug): 25 Δ%; Femoral Blood Flow ([2]; dose 3 ug): 18 Δ%; Coronary Blood Flow ([2]; dose 10 ug): 63 Δ%; Femoral Blood Flow ([2]; dose 10 ug): 51 Δ%; Femoral Blood Flow ([2]; dose 30 ug): 76 Δ%; inhibition at 1 µM (platelets; 1×10^-6 M): 41%; inhibition at 3 µM (platelets; 3×10^-6 M): 90%; inhibition at 0.3 µM (platelets; 3×10^-7 M): 14%; death in acute toxicity test (rats): no death was noted; death in acute toxicity test (mice): no death was noted
CCc1[nH]c(=O)c(C#N)cc1-c1ccc2nc(C)cn2c1 [Example 2, 1,2-Dihydro-6-ethyl-5-(2-methylimidazo[1,2-a]pyridin-6-yl)-2-oxo-3-pyridinecarbonitrile] | 106 | 73.5 | 34.1 |  |  |  |  |  |  |  |  |  | 
CCc1[nH]c(=O)c(C#N)cc1-c1ccc2nccn2c1 [Example 6, 1,2-Dihydro-6-ethyl-5-(imidazo[1,2-a]pyridin-6-yl)-2-oxo-3-pyridinecarbonitrile] |  |  |  | -1 | 14 | 0 | -2 | 30 | 5 | -7 | 58 | 10 | 
Cc1cn2cc(-c3cc(C#N)c(=O)[nH]c3C)ccc2n1 [Example 7, 1,2-Dihydro-6-methyl-5-(2-methylimidazo[1,2-a]pyridin-6-yl)-2-oxo-3-pyridinecarbonitrile] | 130 | 95.7 | 56.7 | 0 | 21 | 8 | -13 | 114 | 18 |  |  |  | 
Cc1[nH]c(=O)ccc1-c1ccc2nccn2c1 [Example 10, 1,2-Dihydro-6-methyl-5-(imidazo[1,2-a]pyridin-6-yl)-2-oxo-pyridine] | 110 | 76.3 | 37.9 | -2 | 11 | 2 | -5 | 25 | 4 |  |  |  | 
COc1nc(C)c(-c2ccc3nccn3c2)cc1C#N [Example 14, 5-(Imidazo[1,2-a]pyridin-6-yl)-2-methoxy-6-methyl-3-pyridinecarbonitrile] |  |  |  |  |  |  |  |  |  |  |  |  | Change in Blood Pressure (Anesthetized Dog; 300 μg/kg): -6%; Change in Cardiac Contractility (LV dp/dt max) (Anesthetized Dog; 300 μg/kg): 10%; Change in Heart Rate (Anesthetized Dog; 300 μg/kg): 6%; Change in Blood Pressure (Anesthetized Dog; 1000 μg/kg): -4%; Change in Cardiac Contractility (LV dp/dt max) (Anesthetized Dog; 1000 μg/kg): 41%; Change in Heart Rate (Anesthetized Dog; 1000 μg/kg): 0%
